Measurements published in patent US7320972B2, “4-Biarylyl-1-phenylazetidin-2-ones” (Microbia, Inc., priority 2003, dated 2008).

What was measured:
[1] = system: cholesterol absorption (serum 3H-cholesterol); assay: In Vivo Assay of Hypolipidemic Agents using the Rat Cholesterol Absorption Model; design: species or system Sprague-Dawley rats; conditions: peroral; for inhibition in vivo at 1 mg/kg: po, serum 3H-cholesterol 3 h after cholesterol dose, vs vehicle control
Summary of the method: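 Female Sprague-Dawley rats (150–250 g, 4–6 per group) were fasted overnight and dosed orally with compound in olive oil or vehicle. Thirty minutes later they received 3–5 μCi 3H-cholesterol orally in olive oil, and serum radioactivity was measured at 3 h. % inhibition = 100×(1−Ctest/Cctrl) at a fixed dose; ED50 is the dose giving half-maximal effect.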

Structure (SMILES) | melting point [°C] | inhibition in vivo at 1 mg/kg [1] [%] | % inhibition at 3 mg/kg ([1]; 3 mg/kg (footnote 2), serum 3H-cholesterol vs vehicle control)
O=C1[C@H](CC[C@H](O)c2ccc(F)cc2)[C@@H](c2ccc(-c3ccccc3O)cc2)N1c1ccc(F)cc1 [Example 7, (3R,4S)-1-(4-fluorophenyl)-3-[(3S)-3-(4-fluorophenyl)-3-hydroxypropyl]-4-(2′-hydroxybiphenyl-4-yl)azetidin-2-one] | 101 | 30 | 
CS(=O)(=O)c1ccc(-c2ccc([C@@H]3[C@@H](CC[C@H](O)c4ccc(F)cc4)C(=O)N3c3ccc(F)cc3)cc2)cc1 [Example 8, (3R,4S)-1-(4-fluorophenyl)-3-[(3S)-3-(4-fluorophenyl)-3-hydroxypropyl]-4-[4′-(methylsulfonyl)biphenyl-4-yl]azetidin-2-one] | 111 | 53 | 
CS(=O)(=O)c1cccc(-c2ccc([C@@H]3[C@@H](CC[C@H](O)c4ccc(F)cc4)C(=O)N3c3ccc(F)cc3)cc2)c1 [Example 10, (3R,4S)-1-(4-fluorophenyl)-3-[(3S)-3-(4-fluorophenyl)-3-hydroxypropyl]-4-[3′-(methylsulfonyl)biphenyl-4-yl]azetidin-2-one] | 104 |  | 54^2%

Now from value to compound, other results behind:

melting point [°C] | Structure (SMILES) | inhibition in vivo at 1 mg/kg [1] [%] | % inhibition at 3 mg/kg ([1]; 3 mg/kg (footnote 2), serum 3H-cholesterol vs vehicle control)
103 | COc1cc(-c2ccc([C@@H]3[C@@H](CC[C@H](O)c4ccc(F)cc4)C(=O)N3c3ccc(F)cc3)cc2)cc(OC)c1OC [Example 9, (3R,4S)-1-(4-fluorophenyl)-3-[(3S)-3-(4-fluorophenyl)-3-hydroxypropyl]-4-(3′,4′,5′-trimethoxybiphenyl-4-yl)azetidin-2-one] | 40 | 
101 | COc1cccc(-c2ccc([C@@H]3[C@@H](CC[C@H](O)c4ccc(F)cc4)C(=O)N3c3ccc(F)cc3)cc2)c1OC [Example 11, (3R,4S)-4-(2′,3′-dimethoxybiphenyl-4-yl)-1-(4-fluorophenyl)-3-[(3S)-3-(4-fluorophenyl)-3-hydroxypropyl]azetidin-2-one] | 28 | 
